For this assay, the system named is IL-2 promoter/enhancer. The assay can be described thus: IL-2 promoter assay (luciferase reporter in J.1F/C6 Jurkat cells). It is filed as cell-based. The following applies: Homo sapiens; J.1F/C6 Jurkat cell line, induction with ionomycin and PMA; read-out: IC50, inhibition of luciferase activity in IL-2 promoter assay. From the text: The IL-2 promoter assay measures transcriptional activation of a luciferase reporter gene which has been placed under control of the IL-2 promoter/enhancer. All the known regulatory features of the IL-2 gene are contained within a ˜300 bp sequence immediately upstream of the open reading frame. The region −328 to +35 relative to the transcription start site of the IL-2 gene is obtained by […] of human genomic DNA and is subcloned into the promoterless luciferase reporter vector pGL2-Basic (Promega). The resulting construct, pIL2P-luc, and a vector containing a neomycin resistance gene, pcDNA/Neo (Invitrogen), are linearized and stably transfected into Jurkat cells (a human T-cell line) by electroporation.
For screening compounds, the cells are pelleted by centrifugation, washed once with PBS, resuspended in RPMI (phenol red-free) containing 5% FBS, and dispensed into 96-well, white microtiter plates (Packard) at 50,000 cells/well. The cells are pre-incubated with compounds (1 μg/ml) for 15 min prior to addition of ionomycin (1 μg/ml) and PMA (10 ng/ml) in a final volume of 100 μl. Following a 5 hr incubation at 37° C. in a humidified incubator, 100 μl of Luc-Lite lysis buffer/luciferase assay buffer (Promega) is added and luminescence measured using a Packard TopCount scintillation counter/luminometer.

Broadly, the IC50 is the concentration needed to halve the response being measured.

With `C=CC[C@@H]1/C=C(\C)C[C@H](C)C[C@H](OC)[C@H]2O[C@@](O)(C(=O)C(=O)N3CCCC[C@H]3C(=O)O[C@H](/C(C)=C/[C@@H]3CC[C@@H](O)[C@H](OC)C3)[C@H](C)[C@@H](O)CC1=O)[C@H](C)C[C@@H]2OC` [FK506], the IC50 amounted to 0.3 nM.

Source of the values: patent US6627647B1, “Substituted 1-(4-aminophenyl)imidazoles and their use as anti-inflammatory agents” (Boehringer Ingelheim Pharmaceuticals, Inc., priority 2000, dated 2003).
